# Experimental data as given in publication PMC4878759 (PLoS ONE, 2016).
# Experiments:
# [1] = biological target: T1, ANO2 (Mus musculus, UniProt Q8CFW1); assay: Apical membrane current in FRT-ANO2 cells; type: cell-based
# T1 sequence (Q8CFW1 1-1002): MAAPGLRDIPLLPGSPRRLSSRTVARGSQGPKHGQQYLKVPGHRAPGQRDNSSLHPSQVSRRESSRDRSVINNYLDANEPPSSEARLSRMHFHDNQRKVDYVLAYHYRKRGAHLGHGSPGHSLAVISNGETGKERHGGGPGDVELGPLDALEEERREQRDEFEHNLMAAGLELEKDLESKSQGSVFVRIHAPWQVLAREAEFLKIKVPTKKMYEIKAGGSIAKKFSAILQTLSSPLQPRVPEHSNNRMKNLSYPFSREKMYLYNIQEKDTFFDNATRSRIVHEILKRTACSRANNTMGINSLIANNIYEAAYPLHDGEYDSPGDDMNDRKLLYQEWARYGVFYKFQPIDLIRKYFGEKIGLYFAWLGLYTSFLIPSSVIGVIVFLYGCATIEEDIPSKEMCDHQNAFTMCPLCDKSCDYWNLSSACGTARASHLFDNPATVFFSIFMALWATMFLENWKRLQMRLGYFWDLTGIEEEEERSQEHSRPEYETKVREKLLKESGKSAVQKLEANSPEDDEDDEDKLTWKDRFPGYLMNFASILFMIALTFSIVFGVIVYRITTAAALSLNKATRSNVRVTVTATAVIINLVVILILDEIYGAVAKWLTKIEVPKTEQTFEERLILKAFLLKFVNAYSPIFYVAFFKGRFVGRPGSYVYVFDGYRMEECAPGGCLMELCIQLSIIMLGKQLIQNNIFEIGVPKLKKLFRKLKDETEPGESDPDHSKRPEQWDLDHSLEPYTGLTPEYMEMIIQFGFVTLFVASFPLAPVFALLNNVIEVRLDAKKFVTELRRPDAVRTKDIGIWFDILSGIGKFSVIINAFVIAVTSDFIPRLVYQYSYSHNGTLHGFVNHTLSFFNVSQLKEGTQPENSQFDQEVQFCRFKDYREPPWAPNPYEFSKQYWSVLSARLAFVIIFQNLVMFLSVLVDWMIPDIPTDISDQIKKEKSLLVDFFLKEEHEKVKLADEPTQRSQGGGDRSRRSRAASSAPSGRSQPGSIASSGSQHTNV
# Description: Snapwell inserts containing ANO1, ANO2 or CFTR expressing FRT cells, ENaC expressing T-84 cells or the human primary airway epithelial cells were mounted in Ussing chambers (Physiologic Instruments, San Diego, CA). To induce transcriptional ENaC induction, the polarized T84 cells were incubated with 2 mM sodium butyrate for 2 days. To increase the functional expression of ANO1, the human airway epithelial cells were treated with IL-4 (10 ng/mL) for 2 days. For T-84 and the human primary airway epithelial cells, the apical and basolateral bath were filled with HCO3^—buffered solution containing (in mM): 120 NaCl, 5 KCl, 1 MgCl2, 1 CaCl2, 10 D-glucose, 2.5 HEPES, and 25 NaHCO3 (pH 7.4). For FRT cells, the basolateral bath was filled with the HCO3^—buffered solution and the apical bath was filled with a half-Cl^- solution. In the half-Cl^- solution 65 mM NaCl in the HCO3^—buffered solution was replaced by Na-gluconate. […] ATP was applied to the apical bath solution to induce intracellular calcium increase. […] Apical membrane currents were measured with an EVC4000 Multi-Channel V/I Clamp (World Precision Instruments, Sarasota, FL) and PowerLab 4/35 (AD Instruments, Castle Hill, Australia). Data were analyzed using Labchart Pro 7 (AD Instruments). The sampling rate was 4 Hz.
# ANO1 belongs to anoctamin gene family which contains ten members presenting eight-pass transmembrane segments with cytosolic N- and C-terminals. ANO2 shares a high level of amino acid homology to ANO1 (~60%) and, ANO1 and ANO2 are confirmed CaCCs. However, the roles of other family members (ANO3-ANO10) remain poorly understood and controversial. […] We investigated the effect of these inhibitors on ANO2-mediated apical membrane current in FRT-ANO2 cells.
# [2] = biological target: T2, mouse ANO2 (Mus musculus, UniProt Q8CFW1); assay: YFP quenching assay in FRT cells expressing ANO2; type: cell-based; conditions: up to 10 μM, 100 μM ATP
# T2 sequence (Q8CFW1 1-1002): T1 sequence (Q8CFW1 1-1002)
smiles,measurement,setting,value
"COc1ccccc1C=NNC(=O)COc1ccc(Cl)cc1C [Ani9, 2-(4-chloro-2-methylphenoxy)-N-[(2-methoxyphenyl)methylideneamino]-acetamide]",effect on ATP-induced ANO2 current,[1]; 1 μM pretreatment,did not affect
same,block of ANO2 current,[1]; 10 μM pretreatment,10 ± 1.6%
same,inhibitory effect on ANO2,[1]; higher concentrations (3 and 10 μM),relatively small inhibitory effect
same,effect on ANO2 activity,[2],did not significantly affect
